{"source": "patent US9580444B2", "about": "“Polycyclic pyrazolinone derivative and herbicide comprising same as effective component thereof” (priority 2013, dated 2017)"}
{"system": "Cyperus difformis (smallflower umbrella plant)", "assay": "Test Example-1: herbicidal effect by a treatment before weeds are generated under submerged conditions", "assay_type": "in vivo", "conditions": "500 g a.i/ha, pre-emergence treatment, about 15 days after treatment, score 0-5", "summary_of_the_method": "(§1)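 Paddy soil in cups was puddled, seeded with the weeds and kept flooded; compound as wettable powder or emulsifiable concentrate was diluted and applied into the water on the seeding day at a set dosage. Effect was scored about 15 days later on a 0–5 scale.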"}
{"smiles": "CCOc1cc(-c2c(Cl)n3n(c2=O)CCCC3)c(F)cc1Cl", "note": "[Example 1-146]", "Herbicidal effect Cyperus difformis": "5 (Herbicidal effect/phytotoxicity was 90% or greater)"}
{"smiles": "C#CCOc1cc(-c2c(Cl)n3n(c2=O)CCCC3)c(F)cc1F", "note": "[Example 1-113]", "Herbicidal effect Cyperus difformis": "5 (Herbicidal effect/phytotoxicity was 90% or greater)"}
{"smiles": "O=c1c(-c2cc(OCC3CC3)c(Cl)cc2F)c(Cl)n2n1CCCC2", "note": "[Example 1-176]", "Herbicidal effect Cyperus difformis": "5 (Herbicidal effect/phytotoxicity was 90% or greater)"}
{"smiles": "O=c1c(-c2cc(OCC3CCCCC3)c(Cl)cc2F)c(Cl)n2n1CCCC2", "note": "[Example 1-188]", "Herbicidal effect Cyperus difformis": "5 (Herbicidal effect/phytotoxicity was 90% or greater)"}
{"smiles": "Cc1cc(-c2c(Cl)n3n(c2=O)CCCC3)c(F)cc1Cl", "note": "[Example 1-130]", "Herbicidal effect Cyperus difformis": "5 (Herbicidal effect/phytotoxicity was 90% or greater)"}
{"system": "Echinochloa oryzicola (barnyard grass)", "assay": "Test Example-1: herbicidal effect by a treatment before weeds are generated under submerged conditions", "assay_type": "in vivo", "conditions": "500 g a.i/ha, pre-emergence treatment, about 15 days after treatment, score 0-5", "summary_of_the_method": "as §1"}
{"smiles": "CCOc1cc(-c2c(Cl)n3n(c2=O)CCCC3)c(F)cc1Cl", "note": "[Example 1-146]", "Herbicidal effect Echinochloa oryzicola": "5 (Herbicidal effect/phytotoxicity was 90% or greater)"}
{"smiles": "C#CCOc1cc(-c2c(Cl)n3n(c2=O)CCCC3)c(F)cc1F", "note": "[Example 1-113]", "Herbicidal effect Echinochloa oryzicola": "5 (Herbicidal effect/phytotoxicity was 90% or greater)"}
{"smiles": "O=c1c(-c2cc(OCC3CC3)c(Cl)cc2F)c(Cl)n2n1CCCC2", "note": "[Example 1-176]", "Herbicidal effect Echinochloa oryzicola": "5 (Herbicidal effect/phytotoxicity was 90% or greater)"}
{"smiles": "O=c1c(-c2cc(OCC3CCCCC3)c(Cl)cc2F)c(Cl)n2n1CCCC2", "note": "[Example 1-188]", "Herbicidal effect Echinochloa oryzicola": "5 (Herbicidal effect/phytotoxicity was 90% or greater)"}
{"smiles": "Cc1cc(-c2c(Cl)n3n(c2=O)CCCC3)c(F)cc1Cl", "note": "[Example 1-130]", "Herbicidal effect Echinochloa oryzicola": "5 (Herbicidal effect/phytotoxicity was 90% or greater)"}
{"system": "Eleocharis acicularis (needle spikerush)", "assay": "Test Example-1: herbicidal effect by a treatment before weeds are generated under submerged conditions", "assay_type": "in vivo", "conditions": "500 g a.i/ha, pre-emergence treatment, about 15 days after treatment, score 0-5", "summary_of_the_method": "as §1"}
{"smiles": "CCOc1cc(-c2c(Cl)n3n(c2=O)CCCC3)c(F)cc1Cl", "note": "[Example 1-146]", "Herbicidal effect Eleocharis acicularis": "5 (Herbicidal effect/phytotoxicity was 90% or greater)"}
{"smiles": "C#CCOc1cc(-c2c(Cl)n3n(c2=O)CCCC3)c(F)cc1F", "note": "[Example 1-113]", "Herbicidal effect Eleocharis acicularis": "5 (Herbicidal effect/phytotoxicity was 90% or greater)"}
{"smiles": "O=c1c(-c2cc(OCC3CC3)c(Cl)cc2F)c(Cl)n2n1CCCC2", "note": "[Example 1-176]", "Herbicidal effect Eleocharis acicularis": "5 (Herbicidal effect/phytotoxicity was 90% or greater)"}
{"smiles": "O=c1c(-c2cc(OCC3CCCCC3)c(Cl)cc2F)c(Cl)n2n1CCCC2", "note": "[Example 1-188]", "Herbicidal effect Eleocharis acicularis": "5 (Herbicidal effect/phytotoxicity was 90% or greater)"}
{"smiles": "Cc1cc(-c2c(Cl)n3n(c2=O)CCCC3)c(F)cc1Cl", "note": "[Example 1-130]", "Herbicidal effect Eleocharis acicularis": "5 (Herbicidal effect/phytotoxicity was 90% or greater)"}
{"system": "Monochoria vaginalis (monochoria)", "assay": "Test Example-1: herbicidal effect by a treatment before weeds are generated under submerged conditions", "assay_type": "in vivo", "conditions": "500 g a.i/ha, pre-emergence treatment, about 15 days after treatment, score 0-5", "summary_of_the_method": "as §1"}
{"smiles": "CCOc1cc(-c2c(Cl)n3n(c2=O)CCCC3)c(F)cc1Cl", "note": "[Example 1-146]", "Herbicidal effect Monochoria vaginalis": "5 (Herbicidal effect/phytotoxicity was 90% or greater)"}
{"smiles": "C#CCOc1cc(-c2c(Cl)n3n(c2=O)CCCC3)c(F)cc1F", "note": "[Example 1-113]", "Herbicidal effect Monochoria vaginalis": "5 (Herbicidal effect/phytotoxicity was 90% or greater)"}
{"smiles": "O=c1c(-c2cc(OCC3CC3)c(Cl)cc2F)c(Cl)n2n1CCCC2", "note": "[Example 1-176]", "Herbicidal effect Monochoria vaginalis": "5 (Herbicidal effect/phytotoxicity was 90% or greater)"}
{"smiles": "O=c1c(-c2cc(OCC3CCCCC3)c(Cl)cc2F)c(Cl)n2n1CCCC2", "note": "[Example 1-188]", "Herbicidal effect Monochoria vaginalis": "5 (Herbicidal effect/phytotoxicity was 90% or greater)"}
{"smiles": "Cc1cc(-c2c(Cl)n3n(c2=O)CCCC3)c(F)cc1Cl", "note": "[Example 1-130]", "Herbicidal effect Monochoria vaginalis": "5 (Herbicidal effect/phytotoxicity was 90% or greater)"}
{"system": "Scirpus juncoides (bulrush)", "assay": "Test Example-1: herbicidal effect by a treatment before weeds are generated under submerged conditions", "assay_type": "in vivo", "conditions": "500 g a.i/ha, pre-emergence treatment, about 15 days after treatment, score 0-5", "summary_of_the_method": "as §1"}
{"smiles": "CCOc1cc(-c2c(Cl)n3n(c2=O)CCCC3)c(F)cc1Cl", "note": "[Example 1-146]", "Herbicidal effect Scirpus juncoides": "5 (Herbicidal effect/phytotoxicity was 90% or greater)"}
{"smiles": "C#CCOc1cc(-c2c(Cl)n3n(c2=O)CCCC3)c(F)cc1F", "note": "[Example 1-113]", "Herbicidal effect Scirpus juncoides": "5 (Herbicidal effect/phytotoxicity was 90% or greater)"}
{"smiles": "O=c1c(-c2cc(OCC3CC3)c(Cl)cc2F)c(Cl)n2n1CCCC2", "note": "[Example 1-176]", "Herbicidal effect Scirpus juncoides": "5 (Herbicidal effect/phytotoxicity was 90% or greater)"}
{"smiles": "O=c1c(-c2cc(OCC3CCCCC3)c(Cl)cc2F)c(Cl)n2n1CCCC2", "note": "[Example 1-188]", "Herbicidal effect Scirpus juncoides": "5 (Herbicidal effect/phytotoxicity was 90% or greater)"}
{"smiles": "Cc1cc(-c2c(Cl)n3n(c2=O)CCCC3)c(F)cc1Cl", "note": "[Example 1-130]", "Herbicidal effect Scirpus juncoides": "5 (Herbicidal effect/phytotoxicity was 90% or greater)"}
{"system": "other annual broad leaf weeds (Lindernia procumbens, Rotala indica, Elatine triandra)", "assay": "Test Example-1: herbicidal effect by a treatment before weeds are generated under submerged conditions", "assay_type": "in vivo", "conditions": "500 g a.i/ha, pre-emergence treatment, about 15 days after treatment, score 0-5", "summary_of_the_method": "as §1"}
{"smiles": "CCOc1cc(-c2c(Cl)n3n(c2=O)CCCC3)c(F)cc1Cl", "note": "[Example 1-146]", "Herbicidal effect Broadleaf weed": "5 (Herbicidal effect/phytotoxicity was 90% or greater)"}
{"smiles": "C#CCOc1cc(-c2c(Cl)n3n(c2=O)CCCC3)c(F)cc1F", "note": "[Example 1-113]", "Herbicidal effect Broadleaf weed": "5 (Herbicidal effect/phytotoxicity was 90% or greater)"}
{"smiles": "O=c1c(-c2cc(OCC3CC3)c(Cl)cc2F)c(Cl)n2n1CCCC2", "note": "[Example 1-176]", "Herbicidal effect Broadleaf weed": "5 (Herbicidal effect/phytotoxicity was 90% or greater)"}
{"smiles": "O=c1c(-c2cc(OCC3CCCCC3)c(Cl)cc2F)c(Cl)n2n1CCCC2", "note": "[Example 1-188]", "Herbicidal effect Broadleaf weed": "5 (Herbicidal effect/phytotoxicity was 90% or greater)"}
{"smiles": "Cc1cc(-c2c(Cl)n3n(c2=O)CCCC3)c(F)cc1Cl", "note": "[Example 1-130]", "Herbicidal effect Broadleaf weed": "5 (Herbicidal effect/phytotoxicity was 90% or greater)"}
{"system": "Abutilon theophrasti (velvetleaf)", "assay": "Test Example-4: herbicidal effect by a foliage treatment after weeds are generated under upland field conditions", "assay_type": "in vivo", "conditions": "500 g a.i/ha, foliage treatment after emergence, about 14 days after treatment, score 0-5", "summary_of_the_method": "(§2)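 Weed seeds were sown in upland soil, covered with about 0.5 cm soil and grown 14 days with watering. Diluted wettable powder or emulsifiable concentrate was then sprayed uniformly on foliage at a set dosage in 4000 L water/ha. Weed control and corn injury were scored 0–5 about 14 days later.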"}
{"smiles": "CCOc1cc(-c2c(Cl)n3n(c2=O)CCCC3)c(F)cc1Cl", "note": "[Example 1-146]", "Herbicidal effect Abutilon theophrast": "5 (Herbicidal effect/phytotoxicity was 90% or greater)"}
{"smiles": "C#CCOc1cc(-c2c(Cl)n3n(c2=O)CCCC3)c(F)cc1F", "note": "[Example 1-113]", "Herbicidal effect Abutilon theophrast": "5 (Herbicidal effect/phytotoxicity was 90% or greater)"}
{"smiles": "O=c1c(-c2cc(OCC3CC3)c(Cl)cc2F)c(Cl)n2n1CCCC2", "note": "[Example 1-176]", "Herbicidal effect Abutilon theophrast": "5 (Herbicidal effect/phytotoxicity was 90% or greater)"}
{"smiles": "O=c1c(-c2cc(OCC3CCCCC3)c(Cl)cc2F)c(Cl)n2n1CCCC2", "note": "[Example 1-188]", "Herbicidal effect Abutilon theophrast": "5 (Herbicidal effect/phytotoxicity was 90% or greater)"}
{"smiles": "Cc1cc(-c2c(Cl)n3n(c2=O)CCCC3)c(F)cc1Cl", "note": "[Example 1-130]", "Herbicidal effect Abutilon theophrast": "5 (Herbicidal effect/phytotoxicity was 90% or greater)"}
{"system": "Amaranthus viridis (green amaranthus)", "assay": "Test Example-4: herbicidal effect by a foliage treatment after weeds are generated under upland field conditions", "assay_type": "in vivo", "conditions": "500 g a.i/ha, foliage treatment after emergence, about 14 days after treatment, score 0-5", "summary_of_the_method": "as §2"}
{"smiles": "CCOc1cc(-c2c(Cl)n3n(c2=O)CCCC3)c(F)cc1Cl", "note": "[Example 1-146]", "Herbicidal effect Amaranthus viridis": "5 (Herbicidal effect/phytotoxicity was 90% or greater)"}
{"smiles": "C#CCOc1cc(-c2c(Cl)n3n(c2=O)CCCC3)c(F)cc1F", "note": "[Example 1-113]", "Herbicidal effect Amaranthus viridis": "5 (Herbicidal effect/phytotoxicity was 90% or greater)"}
{"smiles": "O=c1c(-c2cc(OCC3CC3)c(Cl)cc2F)c(Cl)n2n1CCCC2", "note": "[Example 1-176]", "Herbicidal effect Amaranthus viridis": "5 (Herbicidal effect/phytotoxicity was 90% or greater)"}
{"smiles": "O=c1c(-c2cc(OCC3CCCCC3)c(Cl)cc2F)c(Cl)n2n1CCCC2", "note": "[Example 1-188]", "Herbicidal effect Amaranthus viridis": "5 (Herbicidal effect/phytotoxicity was 90% or greater)"}
{"smiles": "Cc1cc(-c2c(Cl)n3n(c2=O)CCCC3)c(F)cc1Cl", "note": "[Example 1-130]", "Herbicidal effect Amaranthus viridis": "5 (Herbicidal effect/phytotoxicity was 90% or greater)"}
{"system": "Chenopodium album (common lambsquarters)", "assay": "Test Example-4: herbicidal effect by a foliage treatment after weeds are generated under upland field conditions", "assay_type": "in vivo", "conditions": "500 g a.i/ha, foliage treatment after emergence, about 14 days after treatment, score 0-5", "summary_of_the_method": "as §2"}
{"smiles": "CCOc1cc(-c2c(Cl)n3n(c2=O)CCCC3)c(F)cc1Cl", "note": "[Example 1-146]", "Herbicidal effect Chenopodium album": "5 (Herbicidal effect/phytotoxicity was 90% or greater)"}
{"smiles": "C#CCOc1cc(-c2c(Cl)n3n(c2=O)CCCC3)c(F)cc1F", "note": "[Example 1-113]", "Herbicidal effect Chenopodium album": "5 (Herbicidal effect/phytotoxicity was 90% or greater)"}
{"smiles": "O=c1c(-c2cc(OCC3CC3)c(Cl)cc2F)c(Cl)n2n1CCCC2", "note": "[Example 1-176]", "Herbicidal effect Chenopodium album": "5 (Herbicidal effect/phytotoxicity was 90% or greater)"}
{"smiles": "O=c1c(-c2cc(OCC3CCCCC3)c(Cl)cc2F)c(Cl)n2n1CCCC2", "note": "[Example 1-188]", "Herbicidal effect Chenopodium album": "5 (Herbicidal effect/phytotoxicity was 90% or greater)"}
{"smiles": "Cc1cc(-c2c(Cl)n3n(c2=O)CCCC3)c(F)cc1Cl", "note": "[Example 1-130]", "Herbicidal effect Chenopodium album": "5 (Herbicidal effect/phytotoxicity was 90% or greater)"}
{"system": "corn", "assay": "Test Example-4: phytotoxicity by a foliage treatment after weeds are generated under upland field conditions", "assay_type": "in vivo", "conditions": "500 g a.i/ha, foliage treatment after emergence, about 14 days after treatment, score 0-5", "summary_of_the_method": "as §2"}
{"smiles": "CCOc1cc(-c2c(Cl)n3n(c2=O)CCCC3)c(F)cc1Cl", "note": "[Example 1-146]", "Phytotoxicity Corn": "0 (Herbicidal effect/phytotoxicity was 0% to 10%)"}
{"smiles": "C#CCOc1cc(-c2c(Cl)n3n(c2=O)CCCC3)c(F)cc1F", "note": "[Example 1-113]", "Phytotoxicity Corn": "3 (Herbicidal effect/phytotoxicity was 50% to 70%)"}
{"smiles": "O=c1c(-c2cc(OCC3CC3)c(Cl)cc2F)c(Cl)n2n1CCCC2", "note": "[Example 1-176]", "Phytotoxicity Corn": "2 (Herbicidal effect/phytotoxicity was 30% to 50%)"}
{"smiles": "O=c1c(-c2cc(OCC3CCCCC3)c(Cl)cc2F)c(Cl)n2n1CCCC2", "note": "[Example 1-188]", "Phytotoxicity Corn": "0 (Herbicidal effect/phytotoxicity was 0% to 10%)"}
{"smiles": "Cc1cc(-c2c(Cl)n3n(c2=O)CCCC3)c(F)cc1Cl", "note": "[Example 1-130]", "Phytotoxicity Corn": "1 (Herbicidal effect/phytotoxicity was 10% to 30%)"}
